Counter-ions that a name gives are not always drawn.
Each compound was assayed against T1, soluble guanylate cyclase (sGC) (Rattus norvegicus, UniProt P20595) (assay: Biological cellular assay: sGC activity by phosphorylation of VASP in rat aortic smooth muscle cells). Settings: primary rat aortic smooth muscle cells, pre-incubated with 10 μM ODQ, 30 min at 37° C., phospho-VASP (pSer239) fluorescent signal; read-out: Cell assay pEC50 (converted).
T1 construct: endogenous in cells; host or cells: primary rat aortic smooth muscle cells
T1 sequence (P20595 1-619): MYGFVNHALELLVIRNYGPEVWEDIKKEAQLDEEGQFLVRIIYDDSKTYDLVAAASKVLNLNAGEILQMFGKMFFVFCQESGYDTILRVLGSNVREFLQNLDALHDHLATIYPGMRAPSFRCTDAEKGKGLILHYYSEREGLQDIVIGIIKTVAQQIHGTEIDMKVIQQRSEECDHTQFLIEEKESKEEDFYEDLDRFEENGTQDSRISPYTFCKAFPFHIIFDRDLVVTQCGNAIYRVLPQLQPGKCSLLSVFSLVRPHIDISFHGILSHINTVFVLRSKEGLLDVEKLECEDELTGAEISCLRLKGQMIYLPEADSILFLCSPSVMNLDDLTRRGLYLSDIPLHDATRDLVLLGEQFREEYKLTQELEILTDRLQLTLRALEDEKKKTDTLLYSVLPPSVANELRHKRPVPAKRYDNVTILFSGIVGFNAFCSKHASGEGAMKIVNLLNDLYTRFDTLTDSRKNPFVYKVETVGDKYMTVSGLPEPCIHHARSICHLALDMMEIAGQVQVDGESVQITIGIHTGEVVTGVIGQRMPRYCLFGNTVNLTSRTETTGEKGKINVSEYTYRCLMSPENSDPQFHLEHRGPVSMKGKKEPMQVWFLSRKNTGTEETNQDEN
T1 sequence (P19686 1-690 partner): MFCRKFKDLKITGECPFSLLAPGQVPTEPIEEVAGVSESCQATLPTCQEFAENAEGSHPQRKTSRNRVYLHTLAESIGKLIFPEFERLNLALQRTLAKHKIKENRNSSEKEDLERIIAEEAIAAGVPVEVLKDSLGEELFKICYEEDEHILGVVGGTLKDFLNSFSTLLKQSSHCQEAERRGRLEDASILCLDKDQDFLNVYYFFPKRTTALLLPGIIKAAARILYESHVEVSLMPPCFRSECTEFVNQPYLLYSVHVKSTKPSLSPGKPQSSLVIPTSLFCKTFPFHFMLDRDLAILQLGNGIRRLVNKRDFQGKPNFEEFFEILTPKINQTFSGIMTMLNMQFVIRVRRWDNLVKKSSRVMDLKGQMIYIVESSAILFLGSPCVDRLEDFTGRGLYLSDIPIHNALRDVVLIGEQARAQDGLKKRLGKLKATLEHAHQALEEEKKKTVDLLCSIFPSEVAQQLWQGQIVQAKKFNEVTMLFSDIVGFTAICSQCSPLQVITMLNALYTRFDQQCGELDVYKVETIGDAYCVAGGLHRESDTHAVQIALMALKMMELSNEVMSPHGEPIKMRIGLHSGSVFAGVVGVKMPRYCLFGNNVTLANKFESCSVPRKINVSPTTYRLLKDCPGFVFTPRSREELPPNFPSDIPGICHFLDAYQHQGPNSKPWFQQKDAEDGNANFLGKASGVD
Assay type: cell-based
Method: The activity of soluble guanylate cyclase (sGC) was tested in an assay based on measuring phosphorylation of the protein kinase G (PKG) substrate vasodilator-stimulated phosphoprotein (VASP) in rat aortic smooth muscle cells. […] Dimethylsulfoxide (DMSO) vehicle and varying concentrations of the compound to be tested were then added. Following a 30 min incubation at 37° C., media was aspirated and the cells were rinsed with phosphate-buffered saline (PBS) and fixed with 4% formaldehyde in PBS by incubating at room temperature for 20 min. Cells were then washed with PBS and permeabilized for 10 min using 0.1% triton X-100 in PBS. Following PBS rinsing, the cells were blocked for 90 min at room temperature with blocking buffer. The buffer was aspirated and the cells were treated overnight at 4° C. with primary antibody (pSer239-VASP, rabbit polyclonal Ab) diluted 1:500 in blocking buffer. Following three washes with 0.05% Tween 20, the cells were treated for 1 h at room temperature with a fluorescent labeled secondary antibody (IRDye® 800CW Donkey Anti-Rabbit IgG) diluted 1:2500 in blocking buffer with 0.05% Tween 20. Following two washes with PBS, infrared fluorescence was measured using an Odyssey Infrared Imaging System. The activity of a test compound was determined as the pEC50 value which is the concentration able to increase by 50% (vs. Bmax) the phospho-VASP fluorescent signal. Front. Pharmacol., 5 Jul. 2012|doi: 10.3389/fphar.2012.00128, Volume 3 July, 2012, Article number 128.

Row | EC50 [nM] | Compound
1 | 1 | Cc1cc(C2CCN(C(=O)CC3COC3)CC2)ccc1COc1c(F)cc(F)cc1-c1cccc(N2CCC(C(=O)O)CC2)n1 [Example 76, 1-(6-(3,5-difluoro-2-((2-methyl-4-(1-(2-(oxetan-3-yl)acetyl)piperidin-4-yl)benzyl)oxy)phenyl)pyridin-2-yl)piperidine-4-carboxylic acid, Sodium salt]
2 | 0.398 | Cc1cc(C2CCN(C(=O)CC#N)CC2)ccc1COc1c(F)cc(F)cc1-c1cccc(N2CCC(C(=O)O)CC2)n1 [Example 63, 1-(6-(2-((4-(1-(2-cyanoacetyl)piperidin-4-yl)-2-methylbenzyl)oxy)-3,5-difluorophenyl)pyridin-2-yl)piperidine-4-carboxylic acid, Sodium salt]
3 | 2.51 | COc1cc(C2CCN(CC(F)(F)F)CC2)ccc1COc1c(F)cc(F)cc1-c1cccc(N2CCC(C(=O)O)CC2)n1 [Example 87, 1-(6-(3,5-difluoro-2-((2-methoxy-4-(1-(2,2,2-trifluoroethyl)piperidin-4-yl)benzyl)oxy)phenyl)pyridin-2-yl)piperidine-4-carboxylic acid, Sodium salt]
4 | 15.8 | Cc1cc(C2CCN(C(=O)CC(=O)O)CC2)ccc1COc1c(F)cc(F)cc1-c1cccc(N2CCC(C(=O)O)CC2)n1 [Example 81, 1-(6-(2-((4-(1-(2-carboxyacetyl)piperidin-4-yl)-2-methylbenzyl)oxy)-3,5-difluorophenyl)pyridin-2-yl)piperidine-4-carboxylic acid, di-Sodium salt]
5 | 1.26 | Cc1cc(C2CCN(C(=O)CC3CCOC3)CC2)ccc1COc1c(F)cc(F)cc1-c1cccc(N2CCC(C(=O)O)CC2)n1 (stereo not shown) [Example 79, 1-(6-(3,5-difluoro-2-((2-methyl-4-(1-(2-(tetrahydrofuran-3-yl)acetyl)piperidin-4-yl)benzyl)oxy)phenyl)pyridin-2-yl)piperidine-4-carboxylic acid, Sodium salt]
6 | 0.427 | Cc1cc(C2CCN(C(=O)[C@H]3CCOC3)CC2)ccc1COc1c(F)cc(F)cc1-c1cccc(N2CCC(C(=O)O)CC2)n1 [Example 72, (S)-1-(6-(3,5-difluoro-2-((2-methyl-4-(1-(tetrahydrofuran-3-carbonyl)piperidin-4-yl)benzyl)oxy)phenyl)pyridin-2-yl)piperidine-4-carboxylic acid, Sodium salt]
7 | 1.26 | O=C(O)C1CCN(c2cccc(-c3cc(F)cc(F)c3OCc3ccc(C4CCN(CC(F)(F)F)CC4)cc3OC3COC3)n2)CC1 [Example 90, 1-(6-(3,5-difluoro-2-((2-(oxetan-3-yloxy)-4-(1-(2,2,2-trifluoroethyl)piperidin-4-yl)benzyl)oxy)phenyl)pyridin-2-yl)piperidine-4-carboxylic acid, Sodium salt]
8 | 20 | Cc1cc(C2CCN(C(=O)Cn3cncn3)CC2)ccc1COc1c(F)cc(F)cc1-c1cccc(N2CCC(C(=O)O)CC2)n1 [Example 84, 1-(6-(2-((4-(1-(2-(1H-1,2,4-triazol-1-yl)acetyl)piperidin-4-yl)-2-methylbenzyl)oxy)-3,5-difluorophenyl)pyridin-2-yl)piperidine-4-carboxylic acid, Sodium salt]

More lines, now with the values behind:

Row | Compound | EC50 [nM]
9 | COCC(=O)N1CCC(c2ccc(COc3c(F)cc(F)cc3-c3cccc(N4CCC(C(=O)O)CC4)n3)c(C)c2)CC1 [Example 60, 1-(6-(3,5-difluoro-2-((4-(1-(2-methoxyacetyl)piperidin-4-yl)-2-methylbenzyl)oxy)phenyl)pyridin-2-yl)piperidine-4-carboxylic acid, Sodium salt] | 0.126
10 | COCCN1CCC(c2ccc(COc3c(F)cc(F)cc3-c3cccc(N4CCC(C(=O)O)CC4)n3)c(C)c2)CC1 [Example 48, 1-(6-(3,5-difluoro-2-((4-(1-(2-methoxyethyl)piperidin-4-yl)-2-methylbenzyl)oxy)phenyl)pyridin-2-yl)piperidine-4-carboxylic acid, Sodium salt] | 15.8
11 | Cc1cc(C2CCN(C3CCOC3)CC2)ccc1COc1c(F)cc(F)cc1-c1cccc(N2CCC(C(=O)O)CC2)n1 (stereo not shown) [Example 42, 1-(6-(3,5-difluoro-2-((2-methyl-4-(1-(tetrahydrofuran-3-yl)piperidin-4-yl)benzyl)oxy)phenyl)pyridin-2-yl)piperidine-4-carboxylic acid, Sodium salt] | 2.51
12 | Cc1cc(C2CCN(CCO)CC2)ccc1COc1c(F)cc(F)cc1-c1cccc(N2CCC(C(=O)O)CC2)n1 [Example 51, 1-(6-(3,5-difluoro-2-((4-(1-(2-hydroxyethyl)piperidin-4-yl)-2-methylbenzyl)oxy)phenyl)pyridin-2-yl)piperidine-4-carboxylic acid, Sodium salt] | 31.6
13 | Cc1nc(C2CCN(C(=O)C3COC3)CC2)ccc1COc1c(F)cc(F)cc1-c1cccc(N2CCC(C(=O)O)CC2)n1 [Example 30, 1-(6-(3,5-difluoro-2-((2-methyl-6-(1-(oxetane-3-carbonyl)piperidin-4-yl)pyridin-3-yl)methoxy)phenyl)pyridin-2-yl)piperidine-4-carboxylic acid, Sodium salt,] | 20
14 | Cc1cc(C2CCN(C3COC3)CC2)ccc1COc1c(F)cc(F)cc1-c1cccc(N2CCC(C(=O)O)CC2)n1 [Example 39, 1-(6-(3,5-difluoro-2-((2-methyl-4-(1-(oxetan-3-yl)piperidin-4-yl)benzyl)oxy)phenyl)pyridin-2-yl)piperidine-4-carboxylic acid, Sodium salt] | 0.794
15 | Cc1nc(C2CCN(CC#N)CC2)ccc1COc1c(F)cc(F)cc1-c1cccc(N2CCC(C(=O)O)CC2)n1 [Example 27, 1-(6-(2-((6-(1-(cyanomethyl)piperidin-4-yl)-2-methylpyridin-3-yl)methoxy)-3,5-difluorophenyl)pyridin-2-yl)piperidine-4-carboxylic acid, Sodium salt] | 39.8
16 | Cc1nc(C2CCN(CC(F)(F)F)CC2)ccc1COc1c(F)cc(F)cc1-c1cccc(N2CCC(C(=O)O)CC2)n1 [Example 14, 1-(6-(3,5-difluoro-2-((2-methyl-6-(1-(2,2,2-trifluoroethyl)piperidin-4-yl)pyridin-3-yl)methoxy)phenyl)pyridin-2-yl)piperidine-4-carboxylic acid] | 10
17 | Cc1cc(C2CCN(C3CC3)CC2)ccc1COc1c(F)cc(F)cc1-c1cccc(N2CCC(C(=O)O)CC2)n1 [Example 45, 1-(6-(2-((4-(1-cyclopropylpiperidin-4-yl)-2-methylbenzyl)oxy)-3,5-difluorophenyl)pyridin-2-yl)piperidine-4-carboxylic acid, Sodium salt] | 3.16
18 | CCOC(=O)C1CCN(c2cccc(-c3cc(F)cc(F)c3OCc3ccc(C4CCN(CC#N)CC4)cc3C)n2)CC1 [Example 1, ethyl 1-(6-(2-((4-(1-(cyanomethyl)piperidin-4-yl)-2-methylbenzyl)oxy)-3,5-difluorophenyl)pyridin-2-yl)piperidine-4-carboxylate] | 0.631
19 | Cc1nc(C2CCN(CC3CCOC3)CC2)ccc1COc1c(F)cc(F)cc1-c1cccc(N2CCC(C(=O)O)CC2)n1 (stereo not shown) [Example 23, 1-(6-(3,5-difluoro-2-((2-methyl-6-(1-((tetrahydrofuran-3-yl)methyl)piperidin-4-yl)pyridin-3-yl)methoxy)phenyl)pyridin-2-yl)piperidine-4-carboxylic acid] | 251
